Laboratory results: patent publication US10214492B2, “Heterocyclic inhibitors of MCT4” (Vettore, LLC, priority 2016, dated 2019)

Assays:
MCT4 = MCT4 (Homo sapiens (Human), UniProt O15427); test: Assay 3: MCT4-mediated lactate transport in MDA-MB-231 breast cancer cells; type: cell-based; settings: MDA-MB-231 cells; lactate transport
Procedure: (§1) 10 μL of a 30 mM DMSO stock of BCECF-AM ester (Life Technologies) is added and the cells are incubated at 37° C. for 5 min. The cells are pelleted (300 g, 5 min), washed once with 1 mL Tyrode's Solution, pH 7.4, re-pelleted (300 g, 5 min), and resuspended in 1 mL Tyrode's Solution, pH 7.4.
MCT4 activity may be assessed by monitoring the intracellular pH change that accompanies lactate/proton symport, using the pH-sensitive fluorescent dye 2′,7′-bis-(carboxyethyl)-5(6)-carboxyfluorescein (BCECF), in a manner similar to that previously reported for MCT1 and MCT4. The following is an exemplary procedure for assaying MCT4 activity of the compounds of Formula (I).

MCT1 = MCT1 (Homo sapiens (Human), UniProt P53985); test: Assay 4: MCT1-mediated lactate transport in BT20 breast cancer cells; type: cell-based; settings: Table 27
Procedure: as §1
Assay 4: MCT1-Mediated Lactate Transport in BT20 Breast Cancer Cells.
Preparation of BCECF loaded cells are as described for Assay 1. Lactate transport assay is as described for Assay 1, except 10 mM L-lactate (rather than 50 mM) is added.

MCT4, sequence (O15427 whole entry, looked up): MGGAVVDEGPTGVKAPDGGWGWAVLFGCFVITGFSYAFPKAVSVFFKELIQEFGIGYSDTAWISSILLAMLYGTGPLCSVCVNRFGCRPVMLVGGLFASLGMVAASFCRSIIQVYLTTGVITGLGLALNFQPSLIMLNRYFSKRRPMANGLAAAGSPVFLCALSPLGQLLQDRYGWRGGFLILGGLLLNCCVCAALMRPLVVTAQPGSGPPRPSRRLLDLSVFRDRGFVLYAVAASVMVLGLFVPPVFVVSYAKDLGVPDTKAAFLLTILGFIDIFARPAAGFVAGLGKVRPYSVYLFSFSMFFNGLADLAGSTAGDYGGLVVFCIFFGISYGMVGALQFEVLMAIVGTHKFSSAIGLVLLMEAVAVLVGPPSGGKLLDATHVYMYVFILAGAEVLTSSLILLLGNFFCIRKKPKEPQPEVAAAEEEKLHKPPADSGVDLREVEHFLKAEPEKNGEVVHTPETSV
MCT4, sequence (P35613 whole entry partner, looked up): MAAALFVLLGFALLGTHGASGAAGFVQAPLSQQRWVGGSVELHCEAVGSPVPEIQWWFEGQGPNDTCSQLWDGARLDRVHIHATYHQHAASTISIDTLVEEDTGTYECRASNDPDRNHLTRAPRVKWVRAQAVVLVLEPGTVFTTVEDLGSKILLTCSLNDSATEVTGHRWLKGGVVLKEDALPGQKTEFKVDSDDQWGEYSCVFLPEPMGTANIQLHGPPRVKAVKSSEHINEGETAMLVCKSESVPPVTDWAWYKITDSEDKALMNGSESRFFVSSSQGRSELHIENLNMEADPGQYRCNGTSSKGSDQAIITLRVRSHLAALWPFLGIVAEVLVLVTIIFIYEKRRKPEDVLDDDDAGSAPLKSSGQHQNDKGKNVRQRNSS
MCT1, sequence (P53985 whole entry): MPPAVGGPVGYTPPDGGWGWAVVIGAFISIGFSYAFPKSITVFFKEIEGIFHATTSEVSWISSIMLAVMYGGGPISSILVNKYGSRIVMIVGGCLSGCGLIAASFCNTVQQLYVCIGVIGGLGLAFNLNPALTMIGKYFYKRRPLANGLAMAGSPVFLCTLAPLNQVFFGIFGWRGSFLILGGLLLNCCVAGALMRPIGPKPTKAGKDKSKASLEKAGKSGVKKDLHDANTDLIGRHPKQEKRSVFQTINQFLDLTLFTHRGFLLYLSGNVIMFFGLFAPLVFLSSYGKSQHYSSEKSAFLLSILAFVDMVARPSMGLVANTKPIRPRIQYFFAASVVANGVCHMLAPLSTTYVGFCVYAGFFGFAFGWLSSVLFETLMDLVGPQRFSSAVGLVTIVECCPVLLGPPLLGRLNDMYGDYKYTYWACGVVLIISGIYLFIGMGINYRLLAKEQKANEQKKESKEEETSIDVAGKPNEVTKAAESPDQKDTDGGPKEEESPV
MCT1, sequence (P35613 140-385 partner): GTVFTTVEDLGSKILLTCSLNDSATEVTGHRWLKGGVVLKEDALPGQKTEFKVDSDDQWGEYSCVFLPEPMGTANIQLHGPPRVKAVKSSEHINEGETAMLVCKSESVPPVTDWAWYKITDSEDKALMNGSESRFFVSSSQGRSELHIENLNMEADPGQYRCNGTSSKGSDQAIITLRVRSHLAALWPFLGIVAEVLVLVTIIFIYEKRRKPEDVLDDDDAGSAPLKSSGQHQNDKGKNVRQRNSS

CC(C)c1ccccc1-n1nc(COC(C)(C)C(=O)O)cc1-c1cccc(OC2CC2)c1 [Example 189, 2-([5-(3-cyclopropoxyphenyl)-1-[2-(propan-2-yl)phenyl]-1H-pyrazol-3-yl]methoxy)-2-methylpropanoic acid]
IC50 (MCT4): 18 nM | IC50 (MCT1): 22000 nM

CC(C)(OCc1cc(-c2cccc(OC3CC3)c2)n(-c2ccccc2C(F)(F)F)n1)C(=O)O [Example 190, 2-([5-(3-Cyclopropoxyphenyl)-1-[2-(trifluoromethyl)phenyl]-1H-pyrazol-3-yl]-methoxy)-2-methylpropanoic acid]
IC50 (MCT4): 7.8 nM | IC50 (MCT1): 31000 nM

CCn1ncc2cccc(-n3nc(COC(C)(C)C(=O)O)cc3-c3cccc(OC4CC4)c3)c21 [Example 193, 2-([5-(3-Cyclopropoxyphenyl)-1-(1-ethyl-1H-indazol-7-yl)-1H-pyrazol-3-yl]-methoxy)-2-methylpropanoic acid]
IC50 (MCT4): 18 nM | IC50 (MCT1): 38000 nM

Cn1cnc2cccc(-n3nc(COC(C)(C)C(=O)O)cc3-c3cccc(OC4CC4)c3)c21 [Example 194, 2-([5-(3-Cyclopropoxyphenyl)-1-(1-methyl-1H-1,3-benzodiazol-7-yl)-1H-pyrazol-3-yl]-methoxy)-2-methylpropanoic acid]
IC50 (MCT4): 3500 nM | IC50 (MCT1): > 100000 nM

CC(C)(OCc1cc(-c2cc3ccccc3s2)n(Cc2ccccc2Cl)n1)C(=O)O [Example 195]
IC50 (MCT4): 5.3 nM | IC50 (MCT1): 13000 nM

CCOc1cccc(-c2cc(COC(C)(C)C(=O)O)nn2Cc2ccccc2OCC)c1 [Example 199, 2-([5-(3-Ethoxyphenyl)-1-[(2-ethoxy-phenyl)methyl]-1H-pyrazol-3-yl]methoxy)-2-methylpropanoic acid]
IC50 (MCT4): 9.6 nM | IC50 (MCT1): 34000 nM

CCOc1cc(OC)cc(-c2cc(COC(C)(C)C(=O)O)nn2Cc2ccccc2OCC)c1 [Example 200, 2-([5-(3-Ethoxy-5-methoxyphenyl)-1-[(2-ethoxyphenyl)methyl]-1H-pyrazol-3-yl]-methoxy)-2-methylpropanoic acid]
IC50 (MCT4): 1.9 nM | IC50 (MCT1): 17000 nM

CC(C)(OCc1cc(-c2ccc3c(c2)OCCO3)n(Cc2ccccc2Cl)n1)C(=O)O [Example 203, 2-([1-[(2-Chlorophenyl)methyl]-5-(2,3-dihydro-1,4-benzodioxin-6-yl)-1H-pyrazol-3-yl]methoxy)-2-methylpropanoic acid]
IC50 (MCT4): 185 nM | IC50 (MCT1): 93000 nM

CC(C)(OCc1cc(-c2ccc3c(c2)OCO3)n(Cc2ccccc2Cl)n1)C(=O)O [Example 204, [[5-(2H-1,3-Benzodioxol-5-yl)-1-[(2-chloro-phenyl)methyl]-1H-pyrazol-3-yl]methoxy)-2-methylpropanoic acid]
IC50 (MCT4): 40 nM | IC50 (MCT1): > 100000 nM

Cn1cc(-c2cc(COC(C)(C)C(=O)O)nn2Cc2ccccc2Cl)cn1 [Example 205, 2-([1-[(2-Chlorophenyl)methyl]-5-(1-methyl-1H-pyrazol-4-yl)-1H-pyrazol-3-yl]-methoxy)-2-methylpropanoic acid]
IC50 (MCT4): 890 nM | IC50 (MCT1): > 100000 nM

CCOc1ccccc1Cn1nc(COC(C)(C)C(=O)O)cc1-c1ccc2cnn(C)c2c1 [Example 207, 2-([1-[(2-Ethoxyphenyl)methyl]-5-(1-methyl-1H-indazol-6-yl)-lH-pyrazol-3-yl]-methoxy)-2-methylpropanoic acid]
IC50 (MCT4): 15 nM | IC50 (MCT1): 3200 nM

CCOc1cc(OCC)cc(-c2cc(COC(C)(C)C(=O)O)nn2Cc2ccccc2OCC)c1 [Example 208, 2-([5-(3,5-Diethoxyphenyl)-1-[(2-ethoxy-phenyl)methyl]-1H-pyrazol-3-yl]methoxy)-2-methylpropanoic acid]
IC50 (MCT4): 7.5 nM | IC50 (MCT1): 17000 nM

Cn1ncc2cc(-c3cc(COC(C)(C)C(=O)O)nn3Cc3ccccc3Cl)ccc21 [Example 209, 2-([1-[(2-Chlorophenyl)methyl]-5-(1-methyl-1H-indazol-5-yl)-1H-pyrazol-3-yl]-methoxy)-2-methyl propanoic acid]
IC50 (MCT4): 31 nM | IC50 (MCT1): 95000 nM

CCOc1ccccc1Cn1nc(COC(C)(C)C(=O)O)cc1-c1cccc(OC2CCC2)c1 [Example 210, 2-([5-(3-cyclobutoxyphenyl)-1-[(2-ethoxy-phenyl)methyl]-1H-pyrazol-3-yl]methoxy)-2-methylpropanoic acid]
IC50 (MCT4): 2.4 nM | IC50 (MCT1): 7300 nM

COc1cc(OC)cc(-c2cc(COC(C)(C)C(=O)O)nn2CCc2ccccc2)c1 [Example 212, 2-([5-(3,5-Dimethoxyphenyl)-1-(2-phenyl-ethyl)-1H-pyrazol-3-yl]methoxy)-2-methylpropanoic acid]
IC50 (MCT4): 195 nM | IC50 (MCT1): > 100000 nM

CCOc1cc(OCC)cc(-c2cc(COC(C)(C)C(=O)O)nn2Cc2ccccc2Cl)c1 [Example 213, 2-([1-[(2-Chlorophenyl)methyl]-5-(3,5-diethoxyphenyl)-1H-pyrazol-3-yl]methoxy)-2-methylpropanoic acid]
IC50 (MCT4): 12 nM | IC50 (MCT1): 12000 nM

CN(C)c1ccccc1Cn1nc(COC(C)(C)C(=O)O)cc1-c1cccc(OC2CC2)c1 [Example 214, 2-([5-(3-Cyclopropoxyphenyl)-1-[[2-(dimethylamino)phenyl)methyl]-1H-pyrazol-3-yl]methoxy)-2-methylpropanoic acid]
IC50 (MCT4): 6 nM | IC50 (MCT1): 94000 nM

COc1cccc(-c2cc(COC(C)(C)C(=O)O)nn2-c2ccccc2OC(C)C)c1 [Example 215, 2-([5-(3-Methoxyphenyl)-1-[2-(propan-2-yloxy)phenyl]-l//-pyrazol-3-yl]mcthoxy)-2-methylpropanoic acid]
IC50 (MCT4): 360 nM | IC50 (MCT1): > 100000 nM

CC[C@@](C)(OCc1cc(-c2cccc(OC3CC3)c2)n(-c2cccc3cnn(C)c23)n1)C(=O)O [Example 217, (2R)-2-([5-(3-cyclopropoxyphenyl)-1-(1-methyl-1H-indazol-7-yl)-1H-pyrazol-3-yl]methoxy)-2-methylbutanoic acid]
IC50 (MCT4): 8.7 nM | IC50 (MCT1): 18000 nM

CC[C@](C)(OCc1cc(-c2cccc(OC)c2)n(Cc2ccccc2Cl)n1)C(=O)O [Example 218, (2S)-2-([1-[(2-chlorophenyl)methyl]-5-(3-methoxyphenyl)-1H-pyrazol-3-yl]methoxy)-2-methylbutanoic acid]
IC50 (MCT4): 7.5 nM | IC50 (MCT1): 22000 nM

CC[C@@](C)(OCc1cc(-c2cccc(OC)c2)n(Cc2ccccc2Cl)n1)C(=O)O [Example 219, (2R)-2-([1-[(2-chlorophenyl)methyl]-5-(3-methoxyphenyl)-1H-pyrazol-3-yl]methoxy)-2-methylbutanoic acid]
IC50 (MCT4): 4 nM | IC50 (MCT1): 14000 nM

CC[C@@](C)(OCc1cc(-c2cccc(OCC(C)(C)C)c2)n(-c2cccc3cnn(C)c23)n1)C(=O)O [Example 223, (2R)-2-([5-[3-(2,2-Dimethyl-propoxy)phenyl]-1-(1-methyl-1H-indazol-7-yl)-1H-pyrazol-3-yl]methoxy)-2-methyl-butanoic acid]
IC50 (MCT4): 0.3 nM | IC50 (MCT1): 21000 nM

CC(C)Oc1ncc(-c2cc(COC(C)(C)C(=O)O)nn2Cc2ccccc2Cl)o1 [Example 227, 2-([1-[(2-Chlorophenyl)methyl]-5-[2-(propan-2-yloxy)-1,3-oxazol-5-yl]-1H-pyrazol-3-yl)methoxy)-2-methylpropanoic acid]
IC50 (MCT4): 690 nM | IC50 (MCT1): 37000 nM

Cn1ncc2ccc(-c3cc(COC(C)(C)C(=O)O)nn3-c3ccccc3N3CCCC3)cc21 [Example 230, 2-Methyl-2-([5-(1-methyl-1H-indazol-6-yl)-1-[2-(pyrrolidin-1-yl)phenyl]-1H-pyrazol-3-yl]methoxy]propanoic acid]
IC50 (MCT4): 8.1 nM | IC50 (MCT1): 92000 nM

COc1cc(OC)cc(-c2cc(COC(C)(C)C(=O)O)nn2-c2ccccc2N2CCCC2)c1 [Example 231, 2-([5-(3,5-Dimethoxyphenyl)-1-[2-(pyrrolidin-1-yl)phenyl]-1H-pyrazol-3-yl]-methoxy)-2-methylpropanoic acid]
IC50 (MCT4): 4.5 nM | IC50 (MCT1): 63000 nM

CC(C)(OCc1cc(-c2cccc(OC3CC3)c2)n(-c2ccccc2N2CC[C@H](O)C2)n1)C(=O)O [Example 233, 2-([5-(3-Cyclopropoxyphenyl)-1-[2-[(3S)-3-hydroxypyrrolidin-1-yl]phenyl]-1H-pyrazol-3-yl]methoxy)-2-methylpropanoic acid]
IC50 (MCT4): 700 nM | IC50 (MCT1): > 100000 nM

CC(C)(OCc1cc(-c2cccc(OC3CC3)c2)n(-c2ccccc2N2CCOCC2)n1)C(=O)O [Example 234, 2-([5-(3-Cyclopropoxyphenyl)-1-[2-(morpholin-4-yl)phenyl]-1H-pyrazol-3-yl]-methoxy)-2-methylpropanoic acid]
IC50 (MCT4): 960 nM | IC50 (MCT1): 70000 nM

CC(C)(OCc1cc(-c2cccc(OC3CC3)c2)n(-c2ccccc2N2CCCC2=O)n1)C(=O)O [Example 235, 2-([5-(3-Cyclopropoxyphenyl)-1-(2-(2-oxopyrrolidin-1-yl)phenyl]-1H-pyrazol-3-yl]methoxy)-2-methylpropanoic acid]
IC50 (MCT4): > 30000 nM | IC50 (MCT1): > 100000 nM

CC(C)(OCc1cc(-c2cccc(OC3CC3)c2)n(-c2ccccc2-n2cccn2)n1)C(=O)O [Example 236, 2-([5-(3-Cyclopropoxyphenyl)-1-[2-(1H-pyrazol-1-yl)phenyl]-1H-pyrazol-3-yl]-methoxy)-2-methylpropanoic acid]
IC50 (MCT4): 170 nM | IC50 (MCT1): > 100000 nM

CC(C)(OCc1cc(-c2cccc(OC3CC3)c2)n(-c2ccccc2N2CC[C@@H](O)C2)n1)C(=O)O [Example 237, 2-([5-(3-Cyclopropoxyphenyl)-1-[2-[(3R)-3-hydroxypyrrolidin-1-yl]phenyl]-1H-pyrazol-3-yl]methoxy)-2-methylpropanoic acid]
IC50 (MCT4): 160 nM | IC50 (MCT1): > 100000 nM
